Experimental data reported in the NIST ThermoML archive (doi:10.1016/j.fluid.2011.02.010).
Numbers after ± are expanded uncertainties.

Experiments:
[1] = for mass density / viscosity / speed of sound: 101 kPa; for speed of sound: Frequency=2 MHz
[2] = xn = mol fraction of the nth substance listed; conditions: 101 kPa, Liquid, x2 = 0; for speed of sound: Frequency=2 MHz

Row | Structure (SMILES) | mass density ([1]; 298.15 K, Liquid) [kg/m3] | viscosity ([1]; 298.15 K, Liquid) [mPa·s] | speed of sound ([1]; 298.15 K, Liquid) [m/s] | mass density ([1]; 303.15 K, Liquid) [kg/m3] | viscosity ([1]; 303.15 K, Liquid) [mPa·s] | speed of sound ([1]; 303.15 K, Liquid) [m/s] | mass density ([1]; 308.15 K, Liquid) [kg/m3] | viscosity ([1]; 308.15 K, Liquid) [mPa·s] | speed of sound ([1]; 308.15 K, Liquid) [m/s] | mass density ([1]; 318.15 K, Liquid) [kg/m3] | viscosity ([1]; 318.15 K, Liquid) [mPa·s] | speed of sound ([1]; 318.15 K, Liquid) [m/s] | mass density ([1]; 328.15 K, Liquid) [kg/m3] | viscosity ([1]; 328.15 K, Liquid) [mPa·s] | speed of sound ([1]; 328.15 K, Liquid) [m/s] | speed of sound ([2]; 298.15 K) [m/s] | mass density ([2]; 298.15 K) [kg/m3] | viscosity ([2]; 298.15 K) [mPa·s] | speed of sound ([2]; 303.15 K) [m/s] | mass density ([2]; 303.15 K) [kg/m3] | further results
1 | CCCCn1cc[n+](C)c1.[Cl-] [1-butyl-3-methylimidazolium chloride] | 1074.43 ± 10 | 29.21 ± 1.9 | 1868 ± 11 | 1071.38 ± 10 | 25.72 ± 1.7 | 1860 ± 11 | 1068.32 ± 10 | 21.21 ± 1.4 | 1848 ± 11 | 1062.14 ± 10 | 18.97 ± 1.2 | 1820 ± 11 | 1055.89 ± 10 | 16.74 ± 1.1 | 1804 ± 10 | – | – | – | – | – | –
2 | CC[NH2+]CC.O=S(=O)([O-])O [diethylammonium hydrogen sulfate] | – | – | – | – | – | – | – | – | – | – | – | – | – | – | – | – | – | – | – | – | mass density ([1]; 298.15 K, Metastable liquid): 1028.39 ± 10 kg/m3; viscosity ([1]; 298.15 K, Metastable liquid): 25.8 ± 1.7 mPa·s; speed of sound ([1]; 298.15 K, Metastable liquid): 1432 ± 9 m/s; mass density ([1]; 303.15 K, Metastable liquid): 1023.97 ± 10 kg/m3; viscosity ([1]; 303.15 K, Metastable liquid): 21.3 ± 1.4 mPa·s; speed of sound ([1]; 303.15 K, Metastable liquid): 1408 ± 9 m/s; mass density ([1]; 308.15 K, Metastable liquid): 1020.54 ± 10 kg/m3; viscosity ([1]; 308.15 K, Metastable liquid): 18.1 ± 1.2 mPa·s; speed of sound ([1]; 308.15 K, Metastable liquid): 1392 ± 9 m/s; mass density ([1]; 318.15 K, Metastable liquid): 1012.68 ± 10 kg/m3; viscosity ([1]; 318.15 K, Metastable liquid): 13.61 ± 0.92 mPa·s; speed of sound ([1]; 318.15 K, Metastable liquid): 1356 ± 8 m/s; mass density ([1]; 328.15 K, Metastable liquid): 1004.83 ± 10 kg/m3; viscosity ([1]; 328.15 K, Metastable liquid): 10.2 ± 0.7 mPa·s; speed of sound ([1]; 328.15 K, Metastable liquid): 1324 ± 8 m/s; Normal melting temperature ([1]; Crystal, visual observation): 81.00 ± 1 °C
3 | C[S+](C)[O-] [dimethyl sulfoxide] | 1095.37 ± 10 | 1.99 ± 0.19 | 1496 ± 9 | 1092.41 ± 10 | 1.8 ± 0.17 | 1472 ± 9 | 1086.07 ± 10 | 1.65 ± 0.16 | 1460 ± 9 | 1076.22 ± 10 | 1.38 ± 0.15 | 1428 ± 9 | 1066.09 ± 10 | 1.04 ± 0.13 | 1412 ± 8 | – | – | – | – | – | –
4 | C[S+](C)[O-] [dimethyl sulfoxide] + CCCCn1cc[n+](C)c1.[Cl-] | – | – | – | – | – | – | – | – | – | – | – | – | – | – | – | 1496 ± 9 | 1095.37 ± 10 | 1.99 ± 0.19 | 1472 ± 9 | 1092.41 ± 10 | viscosity ([2]; 303.15 K): 1.8 ± 0.17 mPa·s; speed of sound ([2]; 308.15 K): 1460 ± 9 m/s; mass density ([2]; 308.15 K): 1086.07 ± 10 kg/m3; viscosity ([2]; 308.15 K): 1.65 ± 0.16 mPa·s; speed of sound ([2]; 318.15 K): 1428 ± 9 m/s; mass density ([2]; 318.15 K): 1076.22 ± 10 kg/m3; viscosity ([2]; 318.15 K): 1.38 ± 0.15 mPa·s; speed of sound ([2]; 328.15 K): 1412 ± 8 m/s; mass density ([2]; 328.15 K): 1066.09 ± 10 kg/m3; viscosity ([2]; 328.15 K): 1.04 ± 0.13 mPa·s
5 | C[S+](C)[O-] [dimethyl sulfoxide] + CC[NH2+]CC.O=S(=O)([O-])O | – | – | – | – | – | – | – | – | – | – | – | – | – | – | – | 1496 ± 9 | 1095.37 ± 10 | 1.99 ± 0.19 | 1472 ± 9 | 1092.41 ± 10 | viscosity ([2]; 303.15 K): 1.8 ± 0.17 mPa·s; speed of sound ([2]; 308.15 K): 1460 ± 9 m/s; mass density ([2]; 308.15 K): 1086.07 ± 10 kg/m3; viscosity ([2]; 308.15 K): 1.65 ± 0.16 mPa·s; speed of sound ([2]; 318.15 K): 1428 ± 9 m/s; mass density ([2]; 318.15 K): 1076.22 ± 10 kg/m3; viscosity ([2]; 318.15 K): 1.38 ± 0.15 mPa·s; speed of sound ([2]; 328.15 K): 1412 ± 8 m/s; mass density ([2]; 328.15 K): 1066.09 ± 10 kg/m3; viscosity ([2]; 328.15 K): 1.04 ± 0.13 mPa·s
